The source of these data is patent publication US8299113B2, “Bicyclic tetrahydropyrrole compounds” (Laboratorios del Dr. Esteve, S.A., priority 2006, dated 2012).

In one test the target is T1, σ1-receptor (Cavia porcellus, UniProt Q60492).
T1 construct: guinea pig brains are homogenized; from tissue; host or cells: guinea pig brain membranes
In words: Sigma-1 receptor radioligand binding, [3H](+)-pentazocine, brain membranes. To be noted: [3H](+)-pentazocine 0.5 nM, guinea pig brain membranes; for % Binding σ1 10^−7M: compound concentration 10^−7 M; for % Binding σ1 10^−8M: compound concentration 10^−8 M. The method, then: Brain membrane preparation and binding assays for the σ1-receptor are performed as described (DeHaven-Hudkins et al., 1992) with some modifications. In brief, guinea pig brains are homogenized in 10 vols. (w/v) of Tris-HCl 50 mM 0.32 M sucrose, pH 7.4 is centrifuged at 1000 g for 10 min at 4° C. and the supernatants collected and centrifuged again at 48000 g for 15 min at 4° C. The pellet is resuspended in 10 volumes of Tris-HCl buffer (50 mM, pH 7.4), incubated at 37° C. for 30 min, and centrifuged at 48000 g for 20 min at 4° C. Following this, the pellet is resuspended in fresh Tris-HCl buffer (50 mM, pH 7.4) and stored on ice until use.
Each assay tube contain 10 μL of [^3H](+)-pentazocine (final concentration of 0.5 nM), 900 μL of the tissue suspension to a final assay volume of 1 mL and a final tissue concentration of approximately 30 mg tissue net weight/mL. […] All tubes are incubated at 37° C. for 150 min before termination of the reaction by rapid filtration over Schleicher & Schuell GF 3362 glass fibre filters [previously soaked in a solution of 0.5% polyethylenimine for at least 1 h]. Filters are then washed four times with 4 mL of cold Tris-HCl buffer (50 mM, pH 7.4). Following addition of scintillation cocktail, the samples are allowed to equilibrate overnight. The amount of bound radioactivity is determined by liquid scintillation spectrometry using a Wallac Winspectral 1414 liquid scintillation counter. Protein concentrations are determined by the method of Lowry et al. (1951).

The next test has as its target sigma 1 (σ-1) site (Homo sapiens, UniProt Q99720). Conditions: background, in words; cited from earlier work.
For the next test, the target named is sigma (σ-2) site (Homo sapiens, UniProt Q5BJF2). Conditions: background, in words; cited from earlier work.
Sequence of sigma (σ-2) site (Q5BJF2 whole entry): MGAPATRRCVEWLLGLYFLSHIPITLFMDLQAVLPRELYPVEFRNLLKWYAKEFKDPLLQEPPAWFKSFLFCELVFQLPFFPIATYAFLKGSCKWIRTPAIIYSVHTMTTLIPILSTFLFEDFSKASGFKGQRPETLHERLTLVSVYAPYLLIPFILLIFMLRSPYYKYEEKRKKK

T1 sequence (Q60492 whole entry): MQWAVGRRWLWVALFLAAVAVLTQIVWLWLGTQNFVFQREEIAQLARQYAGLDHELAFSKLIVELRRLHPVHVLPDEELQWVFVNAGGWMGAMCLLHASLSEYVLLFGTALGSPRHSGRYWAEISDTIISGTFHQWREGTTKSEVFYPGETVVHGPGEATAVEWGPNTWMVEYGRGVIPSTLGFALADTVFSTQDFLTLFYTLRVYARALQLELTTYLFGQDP
Sequence of sigma 1 (σ-1) site (Q99720 whole entry): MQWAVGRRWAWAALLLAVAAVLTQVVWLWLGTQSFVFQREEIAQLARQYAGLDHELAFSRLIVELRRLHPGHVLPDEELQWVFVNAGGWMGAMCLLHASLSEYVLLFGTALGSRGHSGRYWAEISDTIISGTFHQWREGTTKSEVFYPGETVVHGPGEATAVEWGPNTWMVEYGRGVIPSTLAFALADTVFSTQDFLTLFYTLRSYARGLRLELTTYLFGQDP

For the compound `COC(=O)[C@H](c1ccccc1)N1C[C@H]2C=C(c3ccccc3)C(=O)[C@H]2C1` [Example 3], at σ1-receptor, the “% Binding σ1 10^−7M” value was 31.3% and the “% Binding σ1 10^−8M” value is recorded as 28.0%.
The like results for `COC(=O)[C@H](c1ccccc1)N1C[C@@H]2C=C(c3ccccc3)C(=O)[C@@H]2C1` [Example 4] were, in that order, 32.3% and 24.8%.
The like results for `CCOC(=O)[C@H](C)N1C[C@H]2C=C(c3ccccc3)C(=O)[C@H]2C1` [Example 11] were, in that order, 33.2% and 25.6%.
Consider `CCOC(=O)[C@H](C)N1C[C@@H]2C=C(c3ccccc3)C(=O)[C@@H]2C1` [Example 12], for which, on σ1-receptor, the “% Binding σ1 10^−7M” value is recorded as 32.4% and the “% Binding σ1 10^−8M” value is 16.7%.
On the same counts, the results for `CCCCC1=C[C@@H]2CN([C@@H](C)C(=O)OCC)C[C@@H]2C1=O` [Example 13, (2S)-ethyl2-((3aR,6aS)-5-butyloxo-1,3a,4,6a-tetrahydrocyclopenta[c]pyrrol-2(1H)-yl)propanoate] are 26.9% and 17.6%.
As to `CCCCC1=C[C@H]2CN([C@@H](C)C(=O)OCC)C[C@H]2C1=O` [Example 14, (2S)-ethyl 2-((3aS,6aR)-5-butyl-4-oxo-1,3a,4,6a-tetrahydrocyclopenta[c]pyrrol-2(1H)-yl)propanoate], at σ1-receptor, the “% Binding σ1 10^−7M” value was 39.6% and the “% Binding σ1 10^−8M” value came to 28.8%.
On to SKF 10047, for which the “affinity for the sigma 1 (σ-1) site” value on sigma 1 (σ-1) site is given as “nanomolar”. The “affinity for the sigma (σ-2) site” value at sigma (σ-2) site is reported as “micromolar”.
